This is an account of results in patent publication US9598433B2, “Hepatitis C virus inhibitors” (BRISTOL-MYERS SQUIBB COMPANY, priority 2012, dated 2017).

The subject of assay [1] is HCV genotype 1b (Con1) replicon in HUH-7 cells. As to the kind of experiment: HCV replicon luciferase reporter assay, genotype 1b. Type of assay: cell-based. To be noted: Hepatitis C virus, 72 h, genotype 1b replicon, 3 days incubation. From the text: (§1) An HCV replicon whole cell system was established as described by Lohmann V, Korner F, Koch J, Herian U, Theilmann L, Bartenschlager R., Science 285(5424):110-3 (1999) and modified to introduce a luciferase reporter, as first described by Krieger et al (Krieger N, Lohmann V, and Bartenschlager R, J. Virol. 75(10):4614-4624 (2001)). CDNA encoding a humanized form of the Renilla luciferase gene and a linker sequence fused directly to the 3′-end of the luciferase gene were introduced into the replicon construct using an Ascl restriction site located in core, directly upstream of the neomycin marker gene. The adaptive mutation at position 1179 (serine to isoleucine) was also introduced (Blight K J, Kolykhalov, A A, Rice, C M, Science 290(5498):1972-1974). A stable cell line constitutively expressing this HCV replicon construct was generated by first linearizing plasmid DNAs with ScaI. RNA transcripts were synthesized in vitro using the T7 MegaScript transcription kit (Ambion, Austin, Tex.) according to manufacturer's directions. In vitro transcripts of the cDNA were transfected into the human hepatoma cell line, HUH-7. […] Resulting cell lines were characterized for positive and negative strand RNA production and protein production over time.
(§2) HCV replicon luciferase assays were developed to monitor the inhibitory effects of compounds described in the disclosure on HCV genotypes 1a and 1b viral replication. HUH-7 cells, constitutively expressing the HCV replicon, were grown in Dulbecco's Modified Eagle Media (DMEM) (Gibco-BRL) containing 10% Fetal calf serum (FCS) (Sigma) and 1 mg/mL G418 (Gibco-BRL). Compounds were serially diluted 3 folds in DMSO for a twenty-point titration and subsequently transferred to sterile 384-well tissue-culture treated plates (Corning cat #3571). The plates were then seeded with 50 μL of cells at a density of 3.0×10^3 cells/well in DMEM containing 4% FCS (final DMSO concentration at 0.5%). After 3 days incubation at 37° C., cells were analyzed for Renilla Luciferase activity using the EnduRen as substrate (Promega cat #E6485). The EnduRen substrate was diluted in DMEM and then added to the plates to a final concentration of 7.5 μM. The plates were incubated for 2 hrs at 37° C. and then read immediately for 30 seconds with Viewlux Imager (PerkinElmer) using a luminescence program. To assess cytotoxicity of compounds, CC50 values were generated by multiplexing the EnduRen-containing plates with Cell Titer-Blue (Promega, cat # G8082). Cell-Titer Blue (3 μL) was added to each well and incubated for 8 hrs at 37° C. The fluorescence signal from each well was read, with an excitation wavelength at 525/10 nm and an emission wavelength of 598/10 nm, using the Viewlux Imager.
(§3) The EC50 values for compounds were calculated by using a four-parameter logistic equation: y=A+((B−A)/(1+((C/x)^D))), where A and B denotes minimal and maximal % inhibition, respectively, C is the EC50, D is the hill slope and x represents compound concentration.

Assay [2] has as its system HCV genotype 1a (H77 strain) replicon in HUH-7 cells. As to the kind of experiment: HCV replicon luciferase reporter assay, genotype 1a. In kind it is cell-based. To be noted: Hepatitis C virus, 72 h, genotype 1a replicon, 3 days incubation.
Text: as §1
A stable HCV replicon luciferase reporter cell line representing the genotype 1a H77 strain (Yanagi M, Purcell R H, Emerson S U, et al. Transcripts from a single full-length cDNA clone of hepatitis C virus are infectious when directly transfected into the liver of a chimpanzee. Proc Natl Acad Sci USA 1997; 94(16):8738-8743) was generated as described previously for the genotype 1b(Con1) replicon luciferase cell line. The replicon construct was modified by introducing mutations were introduced into the genes encoding the NS3 helicase domain (proline replaced by leucine at position 1496) and NS5A (serine to isoleucine at position 2204) to improve replication in cell culture.
as §2, §3

Read-outs that look alike come from different tables or passages of the source.

For `CC[C@@H]1O[C@H](C)CC/C=C\[C@@H]2C[C@@]2(C(=O)NS(=O)(=O)C2(C)CC2)NC(=O)[C@@H]2C[C@@H](Oc3nccc4cc(OC)c(F)cc34)CN2C(=O)[C@H]1NC(=O)OC(C)(C)C(F)(F)F` [Compound 1001], the EC50 is 0.47 nM in assay [1] (read-out: LE_1b (EC50)); 0.1 to 0.5 nM in assay [1] (read-out: LE_1b (EC50, range)); 1.26 nM in assay [2] (read-out: LE_1a (EC50)); 1.01 to 5 nM in assay [2] (read-out: LE_1a (EC50, range)).

Regarding `CC[C@@H]1O[C@H](C)CC/C=C\[C@@H]2C[C@@]2(C(=O)NS(=O)(=O)C2(C)CC2)NC(=O)[C@@H]2C[C@@H](Oc3nc(OC)cc4cc(OC)ccc34)CN2C(=O)[C@H]1NC(=O)OC(C)(C)C(F)(F)F` [Compound 1002, 1,1,1-trifluoro-2-methylpropan-2-yl ((2R,6S,7S,9R,13aS,14aR,16aS,Z)-2-((3,6-dimethoxyisoquinolin-1-yl)oxy)-7-ethyl-9-methyl-14a-(((1-methylcyclopropyl)sulfonyl)carbamoyl)-5,16-dioxo-2,3,5,6,7,9,10,11,13a,14,14a,15,16,16a-tetradecahydro-1H-cyclopropa[i]pyrrolo[1,2-e][1,5,8]oxadiazacyclopentadecin-6-yl)carbamate], the EC50 lay in the range of 0.1 to 0.5 nM in assay [1] (read-out: LE_1b (EC50, range)) and 0.51 to 1 nM in assay [2] (read-out: LE_1a (EC50, range)).

With `CC[C@@H]1O[C@H](C)CC/C=C\[C@@H]2C[C@@]2(C(=O)NS(=O)(=O)C2(C)CC2)NC(=O)[C@@H]2C[C@@H](Oc3ncc(OC)c4ccccc34)CN2C(=O)[C@H]1NC(=O)OC(C)(C)C(F)(F)F` [Compound 1003], the EC50 in assay [1] (read-out: LE_1b (EC50, range)) was in the range of 0.1 to 0.5 nM; in assay [2] (read-out: LE_1a (EC50, range)), 0.51 to 1 nM.

For the compound `CC[C@@H]1O[C@H](C)CC/C=C\[C@@H]2C[C@@]2(C(=O)NS(=O)(=O)C2CC2)NC(=O)[C@@H]2C[C@@H](Oc3ncc(OC)c4ccccc34)CN2C(=O)[C@H]1NC(=O)OC(C)(C)C(F)(F)F` [Compound 1004, 1,1,1-trifluoro-2-methylpropan-2-yl ((2R,6S,7S,9R,13aS,14aR,16aS,Z)-14a-((cyclopropylsulfonyl)carbamoyl)-7-ethyl-2-((4-methoxyisoquinolin-1-yl)oxy)-9-methyl-5,16-dioxo-2,3,5,6,7,9,10,11,13a,14,14a,15,16,16a-tetradecahydro-1H-cyclopropa[i]pyrrolo[1,2-e][1,5,8]oxadiazacyclopentadecin-6-yl)carbamate], the EC50 was in the range of 0.1 to 0.5 nM in assay [1] (read-out: LE_1b (EC50, range)) and 0.51 to 1 nM in assay [2] (read-out: LE_1a (EC50, range)).

In the case of `CC[C@@H]1OCCC/C=C\[C@@H]2C[C@@]2(C(=O)NS(=O)(=O)C2(C)CC2)NC(=O)[C@@H]2C[C@@H](Oc3nccc4cc(OC)ccc34)CN2C(=O)[C@H]1NC(=O)OC(C)(C)C(F)(F)F` [Compound 1005], the EC50 in assay [1] (read-out: LE_1b (EC50, range)) lay within 0.51 to 1 nM; in assay [2] (read-out: LE_1a (EC50, range)) it was 1.01 to 5 nM.

As to `CC[C@@H]1O[C@H](C)CC/C=C\[C@@H]2C[C@@]2(C(=O)NS(=O)(=O)C2(C)CC2)NC(=O)[C@@H]2C[C@@H](Oc3nccc4cc(OC)ccc34)CN2C(=O)[C@H]1NC(=O)OC(C)(C)C(F)(F)F` [Compound 1006], the EC50 in assay [1] (read-out: LE_1b (EC50, range)) fell in the range of 0.1 to 0.5 nM; in assay [2] (read-out: LE_1a (EC50, range)), 1.01 to 5 nM.

Turning to `CC[C@@H]1O[C@H](C)CC/C=C\[C@@H]2C[C@@]2(C(=O)NS(=O)(=O)C2CC2)NC(=O)[C@@H]2C[C@@H](Oc3nccc4cc(OC)ccc34)CN2C(=O)[C@H]1NC(=O)OC(C)(C)C(F)(F)F` [Compound 1007, 1,1,1-trifluoro-2-methylpropan-2-yl ((2R,6S,7S,9R,13aS,14aR,16aS,Z)-14a-((cyclopropylsulfonyl)carbamoyl)-7-ethyl-2-((6-methoxyisoquinolin-1-yl)oxy)-9-methyl-5,16-dioxo-2,3,5,6,7,9,10,11,13a,14,14a,15,16,16a-tetradecahydro-1H-cyclopropa[i]pyrrolo[1,2-e][1,5,8]oxadiazacyclopentadecin-6-yl)carbamate], the EC50 in assay [1] (read-out: LE_1b (EC50, range)) lay in the range of 0.51 to 1 nM; in assay [2] (read-out: LE_1a (EC50, range)), 1.01 to 5 nM.

For `CC[C@@H]1O[C@H](C)CC/C=C\[C@@H]2C[C@@]2(C(=O)NS(=O)(=O)C2CC2)NC(=O)[C@@H]2C[C@@H](Oc3nc(OC)cc4cc(OC)ccc34)CN2C(=O)[C@H]1NC(=O)OC(C)(C)C(F)(F)F` [Compound 1008, 1,1,1-trifluoro-2-methylpropan-2-yl ((2R,6S,7S,9R,13aS,14aR,16aS,Z)-14a-((cyclopropylsulfonyl)carbamoyl)-2-((3,6-dimethoxyisoquinolin-1-yl)oxy)-7-ethyl-9-methyl-5,16-dioxo-2,3,5,6,7,9,10,11,13a,14,14a,15,16,16a-tetradecahydro-1H-cyclopropa[i]pyrrolo[1,2-e][1,5,8]oxadiazacyclopentadecin-6-yl)carbamate], the EC50 in assay [1] (read-out: LE_1b (EC50)) was 0.28 nM; in assay [1] (read-out: LE_1b (EC50, range)), 0.1 to 0.5 nM; in assay [2] (read-out: LE_1a (EC50)), 0.41 nM; in assay [2] (read-out: LE_1a (EC50, range)), 0.1 to 0.5 nM.

`CC[C@@H]1OCCC/C=C\[C@@H]2C[C@@]2(C(=O)NS(=O)(=O)C2(C)CC2)NC(=O)[C@@H]2C[C@@H](Oc3nccc4cc(OC)c(F)cc34)CN2C(=O)[C@H]1NC(=O)OC(C)(C)C(F)(F)F` [Compound 1009]: the EC50 in assay [1] (read-out: LE_1b (EC50, range)) lay within 1.01 to 5 nM; in assay [2] (read-out: LE_1a (EC50, range)), 1.01 to 5 nM.

As to `CC[C@@H]1OCCC/C=C\[C@@H]2C[C@@]2(C(=O)NS(=O)(=O)C2(C)CC2)NC(=O)[C@@H]2C[C@@H](Oc3nc(OC)cc4cc(OC)ccc34)CN2C(=O)[C@H]1NC(=O)OC(C)(C)C(F)(F)F` [Compound 1010, 1,1,1-trifluoro-2-methylpropan-2-yl ((2R,6S,7S,13aS,14aR,16aS,Z)-2-((3,6-dimethoxyisoquinolin-1-yl)oxy)-7-ethyl-14a-(((1-methylcyclopropyl)sulfonyl)carbamoyl)-5,16-dioxo-2,3,5,6,7,9,10,11,13a,14,14a,15,16,16a-tetradecahydro-1H-cyclopropa[i]pyrrolo[1,2-e][1,5,8]oxadiazacyclopentadecin-6-yl)carbamate], the EC50 lay in the range of 1.01 to 5 nM in assay [1] (read-out: LE_1b (EC50, range)) and 0.51 to 1 nM in assay [2] (read-out: LE_1a (EC50, range)).

For `CC[C@@H]1OCCC/C=C\[C@@H]2C[C@@]2(C(=O)NS(=O)(=O)C2(C)CC2)NC(=O)[C@@H]2C[C@@H](Oc3ncc(OC)c4ccccc34)CN2C(=O)[C@H]1NC(=O)OC(C)(C)C(F)(F)F` [Compound 1011], the EC50 is 0.51 to 1 nM in assay [1] (read-out: LE_1b (EC50, range)) and 0.51 to 1 nM in assay [2] (read-out: LE_1a (EC50, range)).

With `CC[C@@H]1O[C@H](C)CC/C=C\[C@@H]2C[C@@]2(C(=O)NS(=O)(=O)C2(CF)CC2)NC(=O)[C@@H]2C[C@@H](Oc3nccc4cc(OC)c(F)cc34)CN2C(=O)[C@H]1NC(=O)OC(C)(C)C(F)(F)F` [Compound 1012], the EC50 in assay [1] (read-out: LE_1b (EC50, range)) was in the range of 1.01 to 5 nM; in assay [2] (read-out: LE_1a (EC50, range)), 1.01 to 5 nM.

Turning to `CC[C@@H]1O[C@H](C)CC/C=C\[C@@H]2C[C@@]2(C(=O)NS(=O)(=O)C2(CF)CC2)NC(=O)[C@@H]2C[C@@H](Oc3nc(OC)cc4cc(OC)ccc34)CN2C(=O)[C@H]1NC(=O)OC(C)(C)C(F)(F)F` [Compound 1013, 1,1,1-trifluoro-2-methylpropan-2-yl ((2R,6S,7S,9R,13aS,14aR,16aS,Z)-2-((3,6-dimethoxyisoquinolin-1-yl)oxy)-7-ethyl-14a-(((1-(fluoromethyl)cyclopropyl)sulfonyl)carbamoyl)-9-methyl-5,16-dioxo-2,3,5,6,7,9,10,11,13a,14,14a,15,16,16a-tetradecahydro-1H-cyclopropa[i]pyrrolo[1,2-e][1,5,8]oxadiazacyclopentadecin-6-yl)carbamate], the EC50 in assay [1] (read-out: LE_1b (EC50, range)) lay within 1.01 to 5 nM; in assay [2] (read-out: LE_1a (EC50, range)), 1.01 to 5 nM.

Turning to `CC[C@@H]1O[C@H](C)CC/C=C\[C@@H]2C[C@@]2(C(=O)NS(=O)(=O)C2(CF)CC2)NC(=O)[C@@H]2C[C@@H](Oc3ncc(OC)c4ccccc34)CN2C(=O)[C@H]1NC(=O)OC(C)(C)C(F)(F)F` [Compound 1014], the EC50 in assay [1] (read-out: LE_1b (EC50, range)) was 1.01 to 5 nM; in assay [2] (read-out: LE_1a (EC50, range)), 1.01 to 5 nM.
